Results published in patent publication US8283474B2, “Azabicyclo (3.1.0) hexane derivatives useful as modulators of dopamine D3 receptors” (Glaxo Group Limited, priority 2004, dated 2012).

Biological target: T1, dopamine D3 receptor (Homo sapiens, UniProt P35462)
T1 construct: expressed in transfected cells; membrane preparation
Experiment: GTPγS scintillation proximity assay (GTPγS-SPA), antagonist format, CHO_D3 membranes
Type: biochemical
Conditions: difference in functional pKi at D3 versus the opposite enantiomer of the same Example
Procedure: Functional potency and intrinsic activity of compounds of this invention can be measured by the following GTPγS scintillation proximity assay (GTPγS-SPA). Cells used in the study are Chinese Hamster Ovary (CHO) Cells.
Cell membranes are prepared as follows. Cell pellets are resuspended in 10 volumes of 50 mM HEPES, 1 mM EDTA pH 7.4, using KOH. On the day the following proteases are added to the buffer just prior to giving the homogenisation buffer. 10^−6M Leupeptin(Sigma L2884)−5000×stock=5 mg/ml in buffer 25 ug/ml Bacitracin(Sigma B0125)−1000×stock=25 mg/ml in buffer 1 mM PMSF−1000×stock=17 mg/ml in 100% ethanol 2×10^−6M Pepstain A−1000×stock=2 mM in 100% DMSO
The cells are homogenised by 2×15 second bursts in a 1 litre Glass Waring blender in a class two biohazard cabinet. The resulting suspension is spun at 500 g for 20 mins (Beckman T21 centrifuge: 1550 rpm). The supernatant is withdrawn with a 25 ml pipette, aliquotted into pre-chilled centrifuge tubes and spun at 48,000 g to pellet membrane fragments (Beckman T1270: 23,000 rpm for 30 mins). The final 48,000 g pellet is resuspended in Homogenisation Buffer, (4× the volume of the original cell pellet). The 48,000 g pellet is resuspended by vortexing for 5 seconds and homogenized in a dounce homogenizer 10-15 stokes. The prep is distributed into appropriate sized aliquots, (200-1000 ul), in polypropylene tubes and store at −80° C. Protein content in the membrane preparations is evaluated with the Bradford protein assay.
The final top concentration of test drug is 3 uM in the assay and 11 points serial dilution curves 1:4 in 100% DMSO are carried out using a Biomek FX. The test drug at 1% total assay volume (TAV) is added to a solid, white, 384 well assay plate. 50% TAV of precoupled (for 90 mins at 4° C.) membranes, 5 μg/well, and Wheatgerm Agglutinin Polystyrene Scintillation Proximity Assay beads (RPNQ0260, Amersham), 0.25 mg/well, in 20 mM HEPES pH 7.4, 100 mM NaCl, 10 mM MgCl2, 60 μg/ml saponin and 30 μM GDP is added. The third addition was a 20% TAV addition of either buffer, (agonist format) or EC80 final assay concentration of agonist, Quinelorane, prepared in assay buffer (antagonist format). The assay was started by the addition of 29% TAV of GTPγ[^35S] 0.38 nM final (37 MBq/ml, 1160 Ci/mmol, Amersham). After all additions assay plates are spun down for 1 min at 1,000 rpm. Assay plates are counted on a Viewlux, 613/55 filter, for 5 min., between 2-6 hours after the final addition.
The effect of the test drug over the basal generates EC50 value by an iterative least squares curve fitting programme, expressed in the table as pEC50 (i.e. −log EC50). The ratio between the maximal effect of the test drug and the maximal effect of full agonist, Quinelorane, generates the Intrinsic Activity (IA) value (i.e. IA=1 full agonist, IA<1 partial agonist). fpKi values of test drug are calculated from the IC50 generated by “antagonist format” experiment, using Cheng & Prusoff equation: fKi=IC50/1+([A]/EC50) where: [A] is the concentration of the agonist […] in the assay and EC50 is the 5-HT EC50 value obtained in the same experiment. fpKi is defined as −log fKi.

T1 sequence (P35462 whole entry): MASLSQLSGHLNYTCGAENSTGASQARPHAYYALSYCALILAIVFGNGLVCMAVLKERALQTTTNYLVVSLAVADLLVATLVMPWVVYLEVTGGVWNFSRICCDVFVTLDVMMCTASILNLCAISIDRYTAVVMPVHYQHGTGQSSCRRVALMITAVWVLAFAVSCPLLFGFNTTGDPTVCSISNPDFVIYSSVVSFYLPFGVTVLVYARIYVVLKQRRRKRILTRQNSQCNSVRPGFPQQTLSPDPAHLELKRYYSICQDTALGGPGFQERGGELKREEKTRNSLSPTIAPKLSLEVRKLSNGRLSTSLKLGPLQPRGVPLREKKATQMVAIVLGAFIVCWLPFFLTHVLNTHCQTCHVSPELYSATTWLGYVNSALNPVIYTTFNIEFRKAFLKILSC

Compound	fpKi (D3) higher than the other Enantiomer [log-unit]
COc1cccc([C@]23C[C@H]2CN(CCCSc2nnc(-c4ocnc4C)n2C)C3)c1 (single isomer, unassigned) [Example 24 Enantiomer 1]	> 1
COc1ccc([C@]23C[C@H]2CN(CCCSc2nnc(-c4ocnc4C)n2C)C3)cc1C(C)=O (single isomer, unassigned) [Example 19 Enantiomer 1]	> 1
Cc1ncoc1-c1nnc(SCCCN2C[C@@H]3C[C@]3(c3cccc(C(F)(F)F)c3F)C2)n1C (single isomer, unassigned; enantiomer 2) [Example 111 Enantiomer 2]	> 1
CCC(=O)c1cc([C@]23C[C@H]2CN(CCCSc2nnc(-c4ocnc4C)n2C)C3)ccc1OC (single isomer, unassigned) [Example 71 Enantiomer 1]	> 1
Cc1ccc2c(-c3nnc(SCCCN4C[C@@H]5C[C@]5(c5ccc(Cl)c(Cl)c5)C4)n3C)cccc2n1 (single isomer, unassigned) [Example 4 Enantiomer 1]	> 0.6
Cc1ncoc1-c1nnc(SCCCN2C[C@@H]3C[C@]3(c3ccc(Br)cc3)C2)n1C (single isomer, unassigned) [Example 9 Enantiomer 1]	> 1
Cc1nc2cc([C@]34C[C@H]3CN(CCCSc3nnc(-c5ocnc5C)n3C)C4)ccc2s1 (single isomer, unassigned) [Example 72 Enantiomer 1]	> 1
Cc1ncoc1-c1nnc(SCCCN2C[C@@H]3C[C@]3(c3ccc(F)cc3)C2)n1C (single isomer, unassigned) [Example 21 Enantiomer 1]	> 1
Cc1ccc2c(-c3nnc(SCCCN4CC5CC5(c5ccc(Cl)cc5)C4)n3C)cccc2n1 (single isomer, unassigned; enantiomer 1) [Example 29 Enantiomer 1]	> 1
Cc1ccc2c(-c3nnc(SCCCN4C[C@@H]5C[C@]5(c5ccccc5)C4)n3C)cccc2n1 (single isomer, unassigned) [Example 3 Enantiomer 2]	> 1
Cc1ncoc1-c1nnc(SCCCN2C[C@@H]3C[C@]3(c3cccc(C(F)(F)F)c3)C2)n1C (single isomer, unassigned) [Example 17 Enantiomer 1]	> 1
COc1ccc([C@]23C[C@H]2CN(CCCSc2nnc(-c4cccc5nc(C)ccc45)n2C)C3)cc1 (single isomer, unassigned) [Example 1 Enantiomer 1]	> 1
Cc1ncoc1-c1nnc(SCCCN2C[C@@H]3C[C@]3(c3cc(C(F)(F)F)ccc3F)C2)n1C (single isomer, unassigned) [Example 36 Enantiomer 2]	> 1
Cc1ncoc1-c1nnc(SCCCN2C[C@@H]3C[C@]3(c3ccc(C(F)(F)F)cn3)C2)n1C (single isomer, unassigned) [Example 96 Enantiomer 2]	> 1
Cc1ncoc1-c1nnc(SCCCN2C[C@@H]3C[C@]3(c3ccc(C(F)(F)F)cc3F)C2)n1C.Cl (single isomer, unassigned) [Example 16 Enantiomer 2]	> 1
Cc1ncoc1-c1nnc(SCCCN2C[C@]3(C)C[C@@]3(c3cccc(Cl)c3)C2)n1C (single isomer, unassigned) [Example 22 Enantiomer 1]	> 1
Cc1ncoc1-c1nnc(SCCCN2C[C@@H]3C[C@]3(c3cccc(F)c3)C2)n1C (single isomer, unassigned) [Example 23 Enantiomer 1]	> 1
Cc1ncoc1-c1nnc(SCCCN2C[C@@H]3C[C@]3(c3cc(F)cc(C(F)(F)F)c3)C2)n1C (single isomer, unassigned; enantiomer 1) [Example 110 Enantiomer 1]	> 1
Cc1ccc2c(-c3nnc(SCCCN4C[C@@H]5C[C@]5(c5ccc(Br)cc5)C4)n3C)cccc2n1 (single isomer, unassigned) [Example 2 Enantiomer 2]	> 1
Cc1ncoc1-c1nnc(SCCCN2C[C@@H]3C[C@]3(c3ccc(Cl)cc3)C2)n1C (single isomer, unassigned) [Example 20 Enantiomer 1]	> 1
Cc1ccc2c(-c3nnc(SCCCN4C[C@@H]5C[C@]5(c5ccc(C(C)(C)C)cc5)C4)n3C)cccc2n1 (single isomer, unassigned) [Example 5 Enantiomer 2]	> 0.9
Cc1ncoc1-c1nnc(SCCCN2C[C@@H]3C[C@]3(c3ccc4c(cnn4C)c3)C2)n1C (single isomer, unassigned) [Example 74 Enantiomer 1]	> 1
Cc1ncoc1-c1nnc(SCCCN2C[C@@H]3C[C@]3(c3ccc(OC(F)(F)F)cc3)C2)n1C (single isomer, unassigned) [Example 30 Enantiomer 1]	> 1
